Among the data in ChEMBL document CHEMBL1126045, “Alanine series of ovine corticotropin releasing factor (oCRF): a structure-activity relationship study” (J Med Chem, 1992) are Relative potency values, retold here.

The test system of one assay is Pituitary gland cell. The experiment in a line: In vitro ability of the compound (peptide) to stimulate ACTH release by rat anterior pituitary cells in relative to Ovine corticotropin releasing factor (oCRF) in experiment 2. It is filed as cell-based. Also noted: unit not given here.
Conditions: not given
For “H-SQEPPISLDLTFHLLREVLEMTKADQAAQQAHSNRKLLDIA-NH2”, the Relative potency came to 0.38.

For a further assay, the target named is Corticotropin releasing factor receptor (Rattus norvegicus) (UniProt P47866+P35353). The assay is described as follows: In vitro ability (peptide) to stimulate ACTH release by rat anterior pituitary cells relative to Ovine corticotropin releasing factor (oCRF). Also noted: unit not given here. It is filed as cell-based. The following applies: Pituitary gland cell.
Sequence of Corticotropin releasing factor receptor (Rattus norvegicus) (P35353 whole entry, looked up): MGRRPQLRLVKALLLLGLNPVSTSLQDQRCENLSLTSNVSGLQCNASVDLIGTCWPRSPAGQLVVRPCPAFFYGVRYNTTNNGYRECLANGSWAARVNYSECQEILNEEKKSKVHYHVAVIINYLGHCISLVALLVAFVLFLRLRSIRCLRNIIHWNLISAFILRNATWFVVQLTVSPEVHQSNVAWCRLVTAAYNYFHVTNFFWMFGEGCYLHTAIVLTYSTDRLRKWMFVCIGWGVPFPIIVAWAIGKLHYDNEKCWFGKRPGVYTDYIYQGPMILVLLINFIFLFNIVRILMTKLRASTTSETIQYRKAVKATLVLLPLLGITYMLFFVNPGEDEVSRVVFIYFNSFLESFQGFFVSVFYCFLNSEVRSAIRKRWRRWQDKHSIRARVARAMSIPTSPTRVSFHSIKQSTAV
Sequence of Corticotropin releasing factor receptor (Rattus norvegicus) (P47866 whole entry, looked up): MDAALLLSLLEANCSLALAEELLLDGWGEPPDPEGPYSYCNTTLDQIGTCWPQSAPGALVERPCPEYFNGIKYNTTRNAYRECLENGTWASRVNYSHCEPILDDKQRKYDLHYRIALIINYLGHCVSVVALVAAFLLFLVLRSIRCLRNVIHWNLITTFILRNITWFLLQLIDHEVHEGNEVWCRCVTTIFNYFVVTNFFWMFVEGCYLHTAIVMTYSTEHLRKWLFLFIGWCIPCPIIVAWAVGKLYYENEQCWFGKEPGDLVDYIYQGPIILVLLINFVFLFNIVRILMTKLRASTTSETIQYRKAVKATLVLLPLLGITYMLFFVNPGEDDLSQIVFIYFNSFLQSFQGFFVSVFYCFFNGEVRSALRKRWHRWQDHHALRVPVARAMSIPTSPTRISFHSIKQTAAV
Turning to `CC[C@H](C)[C@H](NC(=O)[C@H](C)NC(=O)[C@@H]1CCCN1C(=O)[C@H](CCC(=O)O)NC(=O)[C@H](CCC(N)=O)NC(=O)[C@@H](N)CO)C(=O)N[C@@H](CO)C(=O)N[C@@H](CC(C)C)C(=O)N[C@@H](CC(=O)O)C(=O)N[C@@H](CC(C)C)C(=O)N[C@H](C(=O)N[C@@H](Cc1ccccc1)C(=O)N[C@@H](Cc1c[nH]cn1)C(=O)N[C@@H](CC(C)C)C(=O)N[C@@H](CC(C)C)C(=O)N[C@@H](CCCN=C(N)N)C(=O)N[C@@H](CCC(=O)O)C(=O)N[C@H](C(=O)N[C@@H](CC(C)C)C(=O)N[C@@H](CCC(=O)O)C(=O)N[C@@H](CCSC)C(=O)N[C@H](C(=O)N[C@@H](CCCCN)C(=O)N[C@@H](C)C(=O)N[C@@H](CC(=O)O)C(=O)N[C@@H](CCC(N)=O)C(=O)N[C@@H](CC(C)C)C(=O)N[C@@H](C)C(=O)N[C@@H](CCC(N)=O)C(=O)N[C@@H](CCC(N)=O)C(=O)N[C@@H](C)C(=O)N[C@@H](Cc1c[nH]cn1)C(=O)N[C@@H](CO)C(=O)N[C@@H](CC(N)=O)C(=O)N[C@@H](CCCN=C(N)N)C(=O)N[C@@H](CCCCN)C(=O)N[C@@H](CC(C)C)C(=O)N[C@@H](CC(C)C)C(=O)N[C@@H](CC(=O)O)C(=O)N[C@H](C(=O)N[C@@H](C)C(N)=O)[C@@H](C)CC)[C@@H](C)O)C(C)C)[C@@H](C)O`, the Relative potency came out at 0.6.

In turn, “H-SQEPPISLDLTFHLLREVLEMTAADQLAQQAHSNRKLLDIA-NH2” had a Relative potency of 0.28. Still for that read-out and setting: with “H-SQEPPISLDLTFHLLREVLEMTKADQLAQQAHANRKLLDIA-NH2” the figure was 2; with “H-SQEPPISLDLTAHLLREVLEMTKADQLAQQAHSNRKLLDIA-NH2”, 0.006; with “H-SQEPPISLDLTFHLLREVLEMTKADQLAQQAHSNAKLLDIA-NH2”, 0.02. Same read-out and setting: in the case of “H-SQEPPISLDLTFHLLREVLEMTKADQLAQQAASNRKLLDIA-NH2” it was 4.5; in that of “H-SQEPPISLDLTFHLLREALEMTKADQLAQQAHSNRKLLDIA-NH2”, 0.5; in that of “H-SQEPPISLDLTFHLLREVLEMAKADQLAQQAHSNRKLLDIA-NH2”, 3.4.

The molecule “H-SQEPPISLDLTFHLLREVLEMTKADQLAQAAHSNRKLLDIA-NH2” displayed a Relative potency of 0.8. The same measure, in the same setting: with “H-SQEPPISLDLTFALLREVLEMTKADQLAQQAHSNRKLLDIA-NH2” the figure was 0.14; with “H-SQEPPISLDLTFHLLAEVLEMTKADQLAQQAHSNRKLLDIA-NH2”, 0.02.

“H-SQEPPISLDLTFHLLREVLEMTKAAQLAQQAHSNRKLLDIA-NH2” displayed a Relative potency of 1.7.

In the case of `CC[C@H](C)[C@H](NC(=O)[C@H](CC(=O)O)NC(=O)[C@H](CC(C)C)NC(=O)[C@H](CC(C)C)NC(=O)[C@H](CCCCN)NC(=O)[C@H](CCCN=C(N)N)NC(=O)[C@H](CC(N)=O)NC(=O)[C@H](CO)NC(=O)[C@H](Cc1c[nH]cn1)NC(=O)[C@H](C)NC(=O)[C@H](CCC(N)=O)NC(=O)[C@H](CCC(N)=O)NC(=O)[C@H](C)NC(=O)[C@H](CC(C)C)NC(=O)[C@H](CCC(N)=O)NC(=O)[C@H](CC(=O)O)NC(=O)[C@H](C)NC(=O)[C@H](CCCCN)NC(=O)[C@@H](NC(=O)[C@H](CCSC)NC(=O)[C@H](CCC(=O)O)NC(=O)[C@H](CC(C)C)NC(=O)[C@@H](NC(=O)[C@H](CCC(=O)O)NC(=O)[C@H](CCCN=C(N)N)NC(=O)[C@H](CC(C)C)NC(=O)[C@H](CC(C)C)NC(=O)[C@H](Cc1c[nH]cn1)NC(=O)[C@H](Cc1ccccc1)NC(=O)[C@H](C)NC(=O)[C@H](CC(C)C)NC(=O)[C@H](CC(=O)O)NC(=O)[C@H](CC(C)C)NC(=O)[C@H](CO)NC(=O)[C@@H](NC(=O)[C@@H]1CCCN1C(=O)[C@@H]1CCCN1C(=O)[C@H](CCC(=O)O)NC(=O)[C@H](CCC(N)=O)NC(=O)[C@@H](N)CO)[C@@H](C)CC)C(C)C)[C@@H](C)O)C(=O)N[C@@H](C)C(N)=O`, the Relative potency stood at 0.4. In turn, `CC[C@H](C)[C@H](NC(=O)[C@H](CC(=O)O)NC(=O)[C@H](CC(C)C)NC(=O)[C@H](CC(C)C)NC(=O)[C@H](CCCCN)NC(=O)[C@H](CCCN=C(N)N)NC(=O)[C@H](CC(N)=O)NC(=O)[C@H](CO)NC(=O)[C@H](Cc1c[nH]cn1)NC(=O)[C@H](C)NC(=O)[C@H](CCC(N)=O)NC(=O)[C@H](CCC(N)=O)NC(=O)[C@H](C)NC(=O)[C@H](CC(C)C)NC(=O)[C@H](CCC(N)=O)NC(=O)[C@H](CC(=O)O)NC(=O)[C@H](C)NC(=O)[C@H](CCCCN)NC(=O)[C@@H](NC(=O)[C@H](CCSC)NC(=O)[C@H](CCC(=O)O)NC(=O)[C@H](CC(C)C)NC(=O)[C@@H](NC(=O)[C@H](CCC(=O)O)NC(=O)[C@H](CCCN=C(N)N)NC(=O)[C@H](CC(C)C)NC(=O)[C@H](CC(C)C)NC(=O)[C@H](Cc1c[nH]cn1)NC(=O)[C@H](Cc1ccccc1)NC(=O)[C@@H](NC(=O)[C@H](CC(C)C)NC(=O)[C@H](CC(=O)O)NC(=O)[C@H](CC(C)C)NC(=O)[C@H](CO)NC(=O)[C@H](C)NC(=O)[C@@H]1CCCN1C(=O)[C@@H]1CCCN1C(=O)[C@H](CCC(=O)O)NC(=O)[C@H](CCC(N)=O)NC(=O)[C@@H](N)CO)[C@@H](C)O)C(C)C)[C@@H](C)O)C(=O)N[C@@H](C)C(N)=O` showed a Relative potency of 0.004.

Molecule “H-SQEPPISLDLTFHLLREVLEMTKADQLAQQAHSNRALLDIA-NH2” registered a Relative potency of 0.8. Still for that read-out and setting: in the case of “H-SQEPPISLDLTFHLLREVLEMTKADQLAQQAHSNRKALDIA-NH2” it was 0.7. The same measure, in the same setting: in the case of `CC[C@H](C)[C@H](NC(=O)[C@H](CC(=O)O)NC(=O)[C@H](CC(C)C)NC(=O)[C@H](CC(C)C)NC(=O)[C@H](CCCCN)NC(=O)[C@H](CCCN=C(N)N)NC(=O)[C@H](CC(N)=O)NC(=O)[C@H](CO)NC(=O)[C@H](Cc1c[nH]cn1)NC(=O)[C@H](C)NC(=O)[C@H](CCC(N)=O)NC(=O)[C@H](CCC(N)=O)NC(=O)[C@H](C)NC(=O)[C@H](CC(C)C)NC(=O)[C@H](CCC(N)=O)NC(=O)[C@H](CC(=O)O)NC(=O)[C@H](C)NC(=O)[C@H](CCCCN)NC(=O)[C@@H](NC(=O)[C@H](CCSC)NC(=O)[C@H](CCC(=O)O)NC(=O)[C@H](CC(C)C)NC(=O)[C@@H](NC(=O)[C@H](CCC(=O)O)NC(=O)[C@H](CCCN=C(N)N)NC(=O)[C@H](CC(C)C)NC(=O)[C@H](CC(C)C)NC(=O)[C@H](Cc1c[nH]cn1)NC(=O)[C@H](Cc1ccccc1)NC(=O)[C@@H](NC(=O)[C@H](C)NC(=O)[C@H](CC(=O)O)NC(=O)[C@H](CC(C)C)NC(=O)[C@H](CO)NC(=O)[C@@H](NC(=O)[C@@H]1CCCN1C(=O)[C@@H]1CCCN1C(=O)[C@H](CCC(=O)O)NC(=O)[C@H](CCC(N)=O)NC(=O)[C@@H](N)CO)[C@@H](C)CC)[C@@H](C)O)C(C)C)[C@@H](C)O)C(=O)N[C@@H](C)C(N)=O` it was 0.006; in that of “H-SQEPPISLDLTFHLLREVLEMTKADQLAQQAHSARKLLDIA-NH2”, 1.1. The same measure, in the same setting: with “H-SQEPPISLDLTFHLLRAVLEMTKADQLAQQAHSNRKLLDIA-NH2” the figure was 0.6; with “H-SQEPPISLDLTFHLLREVAEMTKADQLAQQAHSNRKLLDIA-NH2”, 0.09; with “H-SQEPPISLDLTFHLAREVLEMTKADQLAQQAHSNRKLLDIA-NH2”, 0.09.

The molecule “H-SQEPPISLDLTFHLLREVLEMTKADALAQQAHSNRKLLDIA-NH2” had a Relative potency of 1.1.

On to “H-SQEPPISLDLTFHLLREVLEATKADQLAQQAHSNRKLLDIA-NH2”, for which the Relative potency is 0.4. On the same count and under the same terms, in the case of “H-SQEPPISLDLTFHLLREVLEMTKADQLAQQAHSNRKLLDAA-NH2” it was 1.7; in that of “H-SQEPPISLDLTFHLLREVLEMTKADQLAQQAHSNRKLLAIA-NH2”, 1.8; in that of `CC[C@H](C)[C@H](NC(=O)[C@H](CC(=O)O)NC(=O)[C@H](CC(C)C)NC(=O)[C@H](CC(C)C)NC(=O)[C@H](CCCCN)NC(=O)[C@H](CCCN=C(N)N)NC(=O)[C@H](CC(N)=O)NC(=O)[C@H](CO)NC(=O)[C@H](Cc1c[nH]cn1)NC(=O)[C@H](C)NC(=O)[C@H](CCC(N)=O)NC(=O)[C@H](CCC(N)=O)NC(=O)[C@H](C)NC(=O)[C@H](CC(C)C)NC(=O)[C@H](CCC(N)=O)NC(=O)[C@H](CC(=O)O)NC(=O)[C@H](C)NC(=O)[C@H](CCCCN)NC(=O)[C@@H](NC(=O)[C@H](CCSC)NC(=O)[C@H](CCC(=O)O)NC(=O)[C@H](CC(C)C)NC(=O)[C@@H](NC(=O)[C@H](CCC(=O)O)NC(=O)[C@H](CCCN=C(N)N)NC(=O)[C@H](CC(C)C)NC(=O)[C@H](CC(C)C)NC(=O)[C@H](Cc1c[nH]cn1)NC(=O)[C@H](Cc1ccccc1)NC(=O)[C@@H](NC(=O)[C@H](CC(C)C)NC(=O)[C@H](C)NC(=O)[C@H](CC(C)C)NC(=O)[C@H](CO)NC(=O)[C@@H](NC(=O)[C@@H]1CCCN1C(=O)[C@@H]1CCCN1C(=O)[C@H](CCC(=O)O)NC(=O)[C@H](CCC(N)=O)NC(=O)[C@@H](N)CO)[C@@H](C)CC)[C@@H](C)O)C(C)C)[C@@H](C)O)C(=O)N[C@@H](C)C(N)=O`, 0.004. `CC[C@H](C)[C@H](NC(=O)[C@H](CC(=O)O)NC(=O)[C@H](CC(C)C)NC(=O)[C@H](CC(C)C)NC(=O)[C@H](CCCCN)NC(=O)[C@H](CCCNC(=N)N)NC(=O)[C@H](CC(N)=O)NC(=O)[C@H](CO)NC(=O)[C@H](Cc1cnc[nH]1)NC(=O)[C@H](C)NC(=O)[C@H](CCC(N)=O)NC(=O)[C@H](CCC(N)=O)NC(=O)[C@H](C)NC(=O)[C@H](CC(C)C)NC(=O)[C@H](CCC(N)=O)NC(=O)[C@H](CC(=O)O)NC(=O)[C@H](C)NC(=O)[C@H](CCCCN)NC(=O)[C@@H](NC(=O)[C@H](CCSC)NC(=O)[C@H](CCC(=O)O)NC(=O)[C@H](CC(C)C)NC(=O)[C@@H](NC(=O)[C@H](CCC(=O)O)NC(=O)[C@H](CCCNC(=N)N)NC(=O)[C@H](CC(C)C)NC(=O)[C@H](CC(C)C)NC(=O)[C@H](Cc1cnc[nH]1)NC(=O)[C@H](Cc1ccccc1)NC(=O)[C@@H](NC(=O)[C@H](CC(C)C)NC(=O)[C@H](CC(=O)O)NC(=O)[C@H](CC(C)C)NC(=O)[C@H](CO)NC(=O)[C@@H](NC(=O)[C@@H]1CCCN1C(=O)[C@@H]1CCCN1C(=O)[C@H](CCC(=O)O)NC(=O)[C@H](CCC(N)=O)NC(=O)[C@@H](N)CO)[C@@H](C)CC)[C@@H](C)O)C(C)C)[C@@H](C)O)C(=O)N[C@@H](C)C(N)=O` returned a Relative potency of 1.

In the next assay the test system is Pituitary gland cell. The experiment in a line: In vitro ability of the compound (peptide) to stimulate ACTH release by rat anterior pituitary cells in relative to Ovine corticotropin releasing factor (oCRF) in experiment 1. Also noted: unit not given here.
Conditions: not given
It is filed as cell-based.
“H-SQEPPISLDLTFHLLREVLEMTKADQAAQQAHSNRKLLDIA-NH2”: the Relative potency amounted to 0.6.
